# From paper PMC12298391, “Novel Lung Cell-Penetrating Peptide Targets Alveolar Epithelial Type II Cells, Basal Cells, and Ionocytes” (Pharmaceutics, 2025)
# Where a SMILES comes first, the peptide text is derived from it. The star is where a group is joined. X1 = CN1C(=CC=CC=CC2=[N+](CCCCCC(=O)*)c3ccc4ccccc4c3C2(C)C)C(C)(C)c2c1ccc1ccccc21
# Assays:
# [1] = Serum stability in fetal bovine serum, mass spectrometry; assay type: in vitro ADME; conditions: 10 µg/mL, 37 °C/5% CO2, 0-360 min, acetonitrile precipitation, C-peptide internal standard, LC-MS full scan peak area, triplicate
# Description: At the end of each incubation time point, the tubes were removed and placed on ice; 25 µL of 1 µM C-peptide as an internal standard was added to the tube and vigorously vortexed for 15 s, followed by the addition of 500 μL of acetonitrile to each tube, vortexing for 30 secs, and centrifugation at maximum speed in a tabletop centrifuge for 5 min at 4 °C. The clear supernatant was transferred to a new tube and analyzed using mass spectrophotometry. A full MS scan was performed from 600.0 to 725.0 m/z (mass/charge) without fragmentations in positive polarity at a resolution of 70,000 (the range option is 17,500–140,000). The maximum injection time was 200 msec. The gas flow rates in arbitrary units were as follows: 48 for sheath, 11 for auxiliary, and 3 for sweep. The spray voltage was 4.00 kV, with a spray current of 5.90µA, a capillary temperature of 320 °C, and an auxiliary gas temperature of 250 °C with the S-lens Radio Frequency (RF) set to 50 (arbitrary units from 0 to 100). […] Intensities were quantified as the peak area containing all ion species within the specified m/+2 range. Then, 20 µL of the sample was injected onto an Eclipse Plus C18 column (1.8 um; 2.1 × 50 mm) at 45 °C at a rate of 0.3 mL/min and eluted with a gradient of acetonitrile (in 0.1% formic acid) using water in 0.1% formic acid as the aqueous phase. […]
# [2] = mouse, in vivo, iv, 5 mg/kg
# Description: (§1) Wild-type, 6-week-old, CD1 (Charles Rivers, Wilmington, MA, USA; Cat #022) mice were weighed and anesthetized with an intraperitoneal injection of a 1:1 cocktail of Ketamine–Xylazine at 1–2 μL/gm body weight, followed by intravenous injection with Cy5.5-labeled peptides that were allowed to circulate for various time points. At the end of the circulation times, the mice were euthanized using inhalational CO2, their chest cavity was opened, their right atrium nicked and 3–5 mL of 10% formalin was injected through the left ventricular apex to perfusion-fix the animals. Various organs were harvested, rinsed once in PBS and imaged using an In Vivo Imaging System (IVIS; PerkinElmer Inc., Waltham, MA, USA) with identical instrument settings (stage position, exposure time, binning, F-stop, etc.). The organs were placed in 10% formalin at RT for 4 h, transferred to 15% sucrose at 4 °C overnight, followed by 30% sucrose at 4 °C overnight, before being embedded and cryo-sectioned at 6 μM thickness. The sections were cross-stained with various primary antibodies for ATII cells (ABCA3), basal cells (p63, KRT5), ionocytes (FOXI1), goblet cells (MUC5AC), ATI cells (HOPX), ciliated cells (acetylated tubulin), club cells (Uteroglobin), pulmonary endothelial cells (CD31), and airway smooth muscle cells (α-SMA) overnight at 4 °C. The sections were washed and incubated with Alexa-Fluor-488-conjugated secondary antibody at RT for 1 h. Additionally, kidney sections were stained with Lotus tetragonolobus Lectin-FITC (LTL-FITC) at RT for 1 h. All sections were then washed and mounted with DAPI, and confocal microscopy was performed. All peptides and time points were tested in triplicate (N = 3).
# [3] = tested on: lung cell types of wild-type mice; assay: Confocal microscopy of lung sections of injected mice cross-stained with cell markers; assay type: in vivo, mouse; conditions: 10 mg/kg i.v., 15 min, N = 3
# Description: Animal studies: All animal protocols were approved by the University of Pittsburgh and the Mayo Clinic’s Institutional Animal Care and Use Committee. Wild-type, 6-week-old, CD1 (Charles Rivers, Wilmington, MA, USA; Cat #022) mice were weighed and anesthetized with an intraperitoneal injection of a 1:1 cocktail of Ketamine–Xylazine at 1–2 μL/gm body weight, followed by intravenous injection with Cy5.5-labeled peptides that were allowed to circulate for various time points. At the end of the circulation times, the mice were euthanized using inhalational CO2, their chest cavity was opened, their right atrium nicked and 3–5 mL of 10% formalin was injected through the left ventricular apex to perfusion-fix the animals. Various organs were harvested, rinsed once in PBS and imaged using an In Vivo Imaging System (IVIS; PerkinElmer Inc., Waltham, MA, USA) with identical instrument settings (stage position, exposure time, binning, F-stop, etc.). The organs were placed in 10% formalin at RT for 4 h, transferred to 15% sucrose at 4 °C overnight, followed by 30% sucrose at 4 °C overnight, before being embedded and cryo-sectioned at 6 μM thickness. […]
# [4] = tested on: Human bronchial epithelial cells; assay: Confocal microscopy of peptide uptake by HBECs; assay type: cell-based; conditions: 10 μM Cy5.5 peptide, 2, 10 and 30 min, 37 °C
# Description: Identification and biodistribution of lung-targeting peptides: Eleven “alanine mutant” versions of CTP were synthesized along with the 6 N-terminus CTP-A (APWHLS) and 6 C-terminus CTP-B (SQYSRT), along with CTP peptide as a standard comparison. H9C2 cells, a rat cardiomyoblast cell line, were incubated with 10 μM of the fluorescent peptides, and FACS was performed (Figure 1A). H9C2 cells were chosen because initial phage display studies that led to the identification of CTP were conducted in this cell line, and we had prior evidence of successful transduction of these cells with CTP, which we used as a reference for comparing the alanine mutants. […]. These were injected intravenously in wild-type CD1 mice at a dose of 10 mg/kg. Counter to our expectations, uptake in the heart was negligible. […]; Supplementary Figure S1). […]
# Supplemental Figure S2: Human bronchial epithelial cells transduce robustly with LTPs.
# Human bronchial epithelial cells were plated on cover slips and treated with 10μM of linear
# 3x with pre-warmed PBS, fixed, counterstained with DAPI and confocal microscopy
# have a cytoplasmic, peri-nuclear localization. Random peptide has very little to no uptake.
# (1 picture or pasted object on this page, not shown here)
# wild-type CD1 mice = conditions: 15 min, N = 3; for Uptake in the heart: confocal
# Description: as §1
# [5] = tested on: human Cystic Fibrosis bronchial epithelial cells (CFBE41o-); assay: Transferrin uptake assay, colocalization with endocytosed Alexa-488 transferrin; assay type: cell-based; conditions: confocal; for Uptake by CFBE41o- cells over time: 4 °C, then 5 and 30 min at 37 °C; for Co-localization with endocytosed Alexa-488 transferrin: serum-starved cells, Cy5.5 peptides
# Description: Endocytosis studies: In order to investigate the mechanism of cell entry, human bronchial epithelial cells (HBECs) were serum-starved overnight and subsequently treated with specific endocytic pathway inhibitors. […] At the end of the incubation period, the cells were washed, trypsinized, harvested, and fixed with 2% PFA for 10 min at room temperature (RT), followed by a single wash and resuspension in PBS, and they were subjected to FACS analysis. […] The cells were washed with cold PBS, incubated with Alexa-488-labeled transferrin on ice in a cold room, and incubated for an hour. At the end of incubation, Cy5.5-labeled random, linear or cyclic LTPs were added and transferred to 37 °C, and after each time point, the cells were washed and fixed in 4% PFA. The cells were stained with Hoechst and mounted for confocal imaging.
# Figure 5 Cystic Fibrosis bronchial epithelial cells (CFBE41o-) uptake S7A and R11A without colocalization with endocytosed transferrin. CFBE41o- cells were serum-starved, followed by incubation with transferrin-488, or Cy5.5-labeled linear or cyclic Random, S7A, or R11A, followed by fixation at indicated time points, and confocal microscopy performed. […] (A). Linear peptide colocalization. (B). Cyclic peptide colocalization. (C). Quantification of relative fluorescence of cyclic peptides. ** p < 0.01, *** p < 0.001.
# [6] = tested on: SARS-CoV-2 (strain USA_WA1/2020); assay: microbe, parasite or virus in culture; assay type: cell-based; conditions: Severe acute respiratory syndrome coronavirus 2; HBEC inserts, air-liquid interface; treatment apical and basolateral 24 h prior to infection; MOI ~0.0015 CCID50 per cell; virus collected after 5 days, titrated on Vero 76; triplicate; read-out: EC90 (inhibition of viral replication)
Compound,Serum stability [1],tissue to tissue ratio at 0.25 h [2],Uptake in AT2 and p63+ cells (confocal) compared with cR11A [3],"Uptake in ionocytes, AT-1, club, ciliated, goblet, endothelial and smooth muscle cells (confocal) [3]",Uptake by HBECs (confocal) [4],"Lung uptake at lowest dose (wild-type CD1 mice; 1 mg/kg i.v., ex vivo IVIS)","Uptake in the heart (wild-type CD1 mice; 10 mg/kg i.v., CD1 mice)",Uptake by CFBE41o- cells over time [5],Co-localization with endocytosed Alexa-488 transferrin [5],EC90 [6],"Lung uptake (wild-type CD1 mice; 10 mg/kg i.v., CD1 mice, confocal/IVIS)"
CC(C)C[C@H](NC(=O)[C@H](Cc1c[nH]cn1)NC(=O)[C@H](Cc1c[nH]c2ccccc12)NC(=O)[C@@H]1CCCN1C(=O)[C@H](C)NC(=O)CCCCC[N+]1=C(C=CC=CC=C2N(C)c3ccc4ccccc4c3C2(C)C)C(C)(C)c2c1ccc1ccccc21)C(=O)N[C@@H](CO)C(=O)N[C@@H](CO)C(=O)N[C@@H](CCC(N)=O)C(=O)N[C@@H](Cc1ccc(O)cc1)C(=O)N[C@@H](CO)C(=O)N[C@@H](C)C(=O)N[C@H](C(N)=O)[C@@H](C)O [R11A],susceptibility to immediate degradation upon exposure to serum,8,much lesser amounts,no uptake,taken up at 10 min with uptake increasing at 30 min,robust lung uptake,negligible,increasing uptake at 5 and 30 min,did not show co-localization,,
CCC(CC)COC(=O)[C@H](C)N[P@](=O)(OC[C@H]1O[C@@](C#N)(c2ccc3c(N)ncnn23)[C@H](O)[C@@H]1O)Oc1ccccc1 [Remdesivir],,,,,,,,,,19 nM,
CC(C)C[C@H](NC(=O)[C@H](Cc1c[nH]cn1)NC(=O)[C@H](Cc1c[nH]c2ccccc12)NC(=O)[C@@H]1CCCN1C(=O)[C@H](C)NC(=O)CCCCC[N+]1=C(C=CC=CC=C2N(C)c3ccc4ccccc4c3C2(C)C)C(C)(C)c2c1ccc1ccccc21)C(=O)N[C@@H](CO)C(=O)N[C@@H](C)C(=O)N[C@@H](CCC(N)=O)C(=O)N[C@@H](Cc1ccc(O)cc1)C(=O)N[C@@H](CO)C(=O)N[C@@H](CCCNC(=N)N)C(=O)N[C@H](C(N)=O)[C@@H](C)O [S7A] (X1-APWHLSAQYSRT-NH2; C-terminus assumed),,~2.5,,,taken up at 10 min with uptake increasing at 30 min,,negligible,increasing uptake at 5 and 30 min,did not show co-localization,,robust lung uptake
"TALACYPHTVGQ [RAN, scrambled, random peptide […] used as control, reference compound]",,,,,no uptake,,,,,,
